For series [1], the system named is L5/L6 spinal nerve ligation models. In kind it is in vivo, male SD rats. The protocol: The evaluation of an analgesic effect on neuropathic pain was performed according to the method of Kim et al. using L5/L6 spinal nerve ligation models. That is, the left L5 and L6 sciatic nerves of male SD rats were tightly ligated with a silk thread under pentobarbital anesthesia, and thereafter, the evaluation was performed. As the assessment of pain behavior, a von Frey Test on the plantar surface of the animals was employed (Pain, vol. 50, pp. 355-363, 1992). That is, the plantar surface of the operated limb of the nerve ligation rat was stimulated by using von Frey Filament until a withdrawal response was observed, and the lowest amount of force (g) required to elicit withdrawal response was defined as a pain threshold. […] Each of a vehicle and diluted solutions obtained by diluting (±)-2-[(inden-7-yloxy)methyl]morpholine hydrochloride (indeloxazine hydrochloride), (+)-2-[(inden-7-yloxy)methyl]morpholine hydrochloride ((+)-indeloxazine hydrochloride), (−)-2-[(inden-7-yloxy)methyl]morpholine hydrochloride ((−)-indeloxazine hydrochloride), or duloxetine with a vehicle so as to give a dose of 30 mg/kg (calculated as a salt free form) was orally administered to rats in each group. The oral absorption of venlafaxine is poor, therefore, venlafaxine was intraperitoneally administered. As the vehicle, distilled water was used. A pain threshold was measured at 3 hours after administration in the case of duloxetine, and at 1 hour after administration in the case of the other compounds. An analgesic effect of each compound was examined based on recovery of the pain threshold in the each compound administration group compared with that in the vehicle administration group, as S. K. Joshi et al. described (Neuroscience, vol. 143, pp. 587-596, 2006).
The numerical values in the table indicate a mean value±standard error of the mean (SEM) of recovery ratios of thresholds of compounds when the pain threshold of the normal side paw is regarded as 100% and the pain threshold of the operated side paw is regarded as 0%.

The next series deals with CYP. The series is described as follows: CYP inhibitory activity. Conditions: no method or isoform given. In kind it is in vitro ADME.
[2] abbreviates: 30 mg/kg (calculated as a salt free form), p.o., measured 1 hour after administration, mean ± SEM, hydrochloride.
[3] abbreviates: oral dose of 30 mg/kg (salt free form), 1 hour after administration, Student's t-test.

This is an account of results in patent US20100087439A1, “NOVEL […]/OR THERAPEUTIC AGENT FOR NEUROPATHIC PAIN” (ASTELLAS PHARMA INC., priority 2007, published 2010).

Like-named read-outs stand apart in the source and are kept apart here.

For the compound `CNCC[C@H](Oc1cccc2ccccc12)c1cccs1` [Duloxetine, (S)—N-methyl-γ-(1-naphthalenyloxy)-2-thiophenepropanamine, reference compound], in series [1] (rat, in vivo), the “% Effect (recovery ratio of pain threshold; normal side paw = 100%, operated side paw = 0%)” value is reported as 49.3 ± 25.3% and the “recovery in the pain threshold compared with the vehicle group (in words)” value is recorded as “a significant recovery in the threshold was not observed”.

With `C1=Cc2cccc(OCC3CNCCO3)c2C1.Cl` (single isomer, unassigned; (+)) [(+)-Indeloxazine hydrochloride, (+)-2-[(inden-7-yloxy)methyl]morpholine hydrochloride], the “% Effect (recovery ratio of pain threshold; normal side paw = 100%, operated side paw = 0%)” value in series [1] (setting [2]) is reported as 94.5 ± 17.0 %. Further, in series [1] (setting [3]), the “recovery in the pain threshold compared with the vehicle group (in words)” value is given as “significant recovery in the pain threshold”. As to `C1=Cc2cccc(OCC3CNCCO3)c2C1.Cl` (racemic) [(±)-Indeloxazine hydrochloride, (±)-2-[(inden-7-yloxy)methyl]morpholine hydrochloride], the “% Effect (recovery ratio of pain threshold; normal side paw = 100%, operated side paw = 0%)” value in series [1] (30 mg/kg (calculated as a salt free form), p.o., measured 1 hour after administration, mean ± SEM) is reported as 94.3 ± 24.6 %. Further, in series [1] (setting [3]), the “recovery in the pain threshold compared with the vehicle group (in words)” value is on record as “significant recovery in the pain threshold”. As to `C1=Cc2cccc(OCC3CNCCO3)c2C1.Cl` (single isomer, unassigned; (-)) [(−)-Indeloxazine hydrochloride, (−)-2-[(inden-7-yloxy)methyl]morpholine hydrochloride], the “% Effect (recovery ratio of pain threshold; normal side paw = 100%, operated side paw = 0%)” value in series [1] (setting [2]) is 115.7 ± 22.0 %. Also, the “recovery in the pain threshold compared with the vehicle group (in words)” value in series [1] (setting [3]) is on record as “significant recovery in the pain threshold”.

`COc1ccc(C(CN(C)C)C2(O)CCCCC2)cc1` (racemic) [Venlafaxine, (±)-1-[2-(dimethylamino)-1-(4-methoxyphenyl)ethyl]cyclohexanol, reference compound]: the “recovery in the pain threshold compared with the vehicle group (in words)” value in series [1] (30 mg/kg (salt free form), intraperitoneal, 1 hour after administration, Student's t-test) is “a significant recovery in the threshold was not observed”. On to `C1=Cc2cccc(OCC3CNCCO3)c2C1` (single isomer, unassigned; (+)) [(+)-2-[(inden-7-yloxy)methyl]morpholine], for which the “CYP inhibitory activity (in words)” value with CYP is listed as “extremely weak CYP inhibitory activity”.
